Article PMC12225012, “Identification and Application of a Novel Patulin Degrading Enzyme From Meyerozyma guilliermondii” (Advanced Science, 2025)

Target: T1, MgSDR1 (Meyerozyma guilliermondii, UniProt A5DPG9)
T1 construct: gene PGUG_05170; pET-30a(+) BamHI/XhoI, N-terminal 6xHis tag, E. coli Rosetta (DE3), imidazole-eluted, approx. 40 kDa with tag; catalytic triad Ser174-Tyr188-Lys192; GXXXGXG and YXXXK motifs
Experiment: degradation kinetics (details in supplement)
Type: biochemical
Conditions: co-substrate NADPH; pH and temperature of the kinetic assay not given in the main text

T1 sequence (A5DPG9 entry or part of it): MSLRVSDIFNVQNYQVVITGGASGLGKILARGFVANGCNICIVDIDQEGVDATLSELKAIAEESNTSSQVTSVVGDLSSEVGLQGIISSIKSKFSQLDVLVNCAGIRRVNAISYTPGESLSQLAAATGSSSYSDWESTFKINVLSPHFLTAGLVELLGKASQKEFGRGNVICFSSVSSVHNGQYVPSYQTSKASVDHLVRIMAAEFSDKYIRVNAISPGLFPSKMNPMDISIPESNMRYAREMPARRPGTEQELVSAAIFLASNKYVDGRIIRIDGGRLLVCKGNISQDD

## O=C1C=C2C(=CCOC2O)O1 (stereo not shown) [PAT]
  Km: 1420 µM
